For this test, the system named is neurons in the mid-posterior insular cortex (mpIC). Nature of the test: Arc expression in the mpIC of Arc-dVenus reporter mice after oral consumption. The class given is in vivo. As to conditions: for response of neurons in the mpIC (Arc expression) to oral consumption: Arc-dVenus reporter mice, compared with water. As to the method: The expression of Arc was evaluated by immunohistochemical staining for GFP (green) to amplify the signal of dVenus and co-localized with DAPI nuclear staining (blue). Dotted lines are based on Allen Brain Atlas and depict the cytoarchitectonic layers of the insular cortex (granular insula; GI, dysgranular insula; DI, agranular insula; AI) and the claustrum (CI). Scale bar, 200 μm. (1B) A graph showing manual quantification of Arc-positive cells that were identified by GFP and DAPI double-positive staining per region of interest (ROI=[…]) in mice that were exposed to water or OVA. Student's t-test; mean±s.e.m; n=3, 4; **P<0.01. (1C) Maps showing the location of the insular cortex in mice (upper left). Arc-expressing neurons following oral consumption of OVA were found in the mid-posterior region of the insula (upper right) that comprises both gustatory and visceral cortices (lower panel). (1D) A location map and micrographs showing validation of the injection site in the mpIC. Representative image describing the expression of the inhibiting form of designer receptors exclusively activated by designer drugs (DREADDs; Gi) in neurons following stereotactic injection of a viral vector (AAV8-hSyn-hM4Di (Gi)-mCherry), in the GI and DI layers of the mpIC ((0.14-0.18) mm Anterior-Posterior (AP); (3.6-3.8) mm Medial-Lateral (ML); (2.5-2.6) mm Dorsal-Ventral (DV)).
FIGS. 5A-5F include fluorescent micrographs, graphs, and location maps, showing representation of aversive information in the mpIC. […] The expression of Arc was evaluated as described in FIG. 1A. Dotted lines are based on Allen Brain Atlas, and depict the cytoarchitectonic layers of the insular cortex (granular insula; GI, dysgranular insula; DI, agranular insula; AI) and the claustrum (CI). Scale bar, 200 μm. (5B) Manual quantification of Arc-positive cells in the region of interest (ROI=[…]) was performed as described in FIG. 1A in mice that consumed water or denatonium benzoate. Student's t-test; mean±s.e.m; n=3, 5; *P<0.05. (5C) The images show Arc expression in the mpIC of Arc-dVenus reporter mice that were exposed to OVA (left panel) or denatonium benzoate (right panel). The numbers (1-6) represent the layers of the cerebral cortex. Scale bar, 200 μm. (5D) Graphs represent the difference in total Arc expression (left) and the distribution of Arc-positive cells in the 3 cytoarchitectonic layers of the insular cortex (GI, DI, and AI) following exposure of mice to OVA or denatonium benzoate. […] (5F) Graphs depict the total difference in Arc-positive cells in the ⅔ layer of the cerebral cortex (left) of the mpIC and expression of Arc in this layer divided by the insular layers (GI, DI, and AI). Student's t-test; mean±s.e.m; n=3, 5; *P<0.05, **P<0.01.
Thus far, the inventors exposed the mice only to positive appetitive signals, however, whether the mpIC also responds to aversive information that can inform about the presence of pathogens, left unclear. To answer this question the inventors used the Arc reporter mice, except this time they were exposed to the bitter substance denatonium benzoate.

The record followed here is patent US20200376287A1, “METHODS FOR INCREASING TGF-B SIGNALING” (TECHNION RESEARCH & DEVELOPMENT FOUNDATION LIMITED, priority 2019, published 2020).

Consider `CC[N+](CC)(CC(=O)Nc1c(C)cccc1C)Cc1ccccc1` [denatonium benzoate], for which the “response of neurons in the mpIC (Arc expression) to oral consumption” value is listed as “neurons in the mpIC also respond”. The “Arc-positive cells in the granular layer (GI) of the mpIC” value (denatonium benzoate (bitter) compared to OVA) is “less Arc-positive cells”. Moreover, the “total number of activated neurons in the mpIC” value (denatonium benzoate compared to OVA) is “no significant difference”.

B1: ovalbumin (protein, UniProt P01012 2-386, looked up)
Ovalbumin: GSIGAASMEFCFDVFKELKVHHANENIFYCPIAIMSALAMVYLGAKDSTRTQINKVVRFDKLPGFGDSIEAQCGTSVNVHSSLRDILNQITKPNDVYSFSLASRLYAEERYPILPEYLQCVKELYRGGLEPINFQTAADQARELINSWVESQTNGIIRNVLQPSSVDSQTAMVLVNAIVFKGLWEKAFKDEDTQAMPFRVTEQESKPVQMMYQIGLFRVASMASEKMKILELPFASGTMSMLVLLPDEVSGLEQLESIINFEKLTEWTSSNVMEERKIKVYLPRMKMEEKYNLTSVLMAMGITDVFSSSANLSGISSAESLKISQAVHAAHAEINEAGREVVGSAEAGVDAASVSEEFRADHPFLFCIKHIATNAVLFFGRCVSP
notes: orally consumed novel innocuous food antigen
On to B1, for which the “response of neurons in the mpIC (Arc expression) to oral consumption” value is recorded as “respond to oral consumption of OVA”. For the same molecule, for the setting “OVA-consuming mice compared to mice exposed to denatonium benzoate”, the “Arc expression in the AI layer of the mpIC” value is reported as “lower expression”.
